Assay results taken from PMC11286291, “A Light-Driven In Vitro Enzymatic Biosystem for the Synthesis of α-Farnesene from Methanol” (Biodesign Research, 2024).

Biological target: T1, AFS (Malus domestica, UniProt Q84LB2)
T1 construct: gene AFS1; N-terminal SUMO fusion, pET28a, E. coli BL21(DE3), Ni-NTA purified
T1 sequence (Q84LB2 1-576): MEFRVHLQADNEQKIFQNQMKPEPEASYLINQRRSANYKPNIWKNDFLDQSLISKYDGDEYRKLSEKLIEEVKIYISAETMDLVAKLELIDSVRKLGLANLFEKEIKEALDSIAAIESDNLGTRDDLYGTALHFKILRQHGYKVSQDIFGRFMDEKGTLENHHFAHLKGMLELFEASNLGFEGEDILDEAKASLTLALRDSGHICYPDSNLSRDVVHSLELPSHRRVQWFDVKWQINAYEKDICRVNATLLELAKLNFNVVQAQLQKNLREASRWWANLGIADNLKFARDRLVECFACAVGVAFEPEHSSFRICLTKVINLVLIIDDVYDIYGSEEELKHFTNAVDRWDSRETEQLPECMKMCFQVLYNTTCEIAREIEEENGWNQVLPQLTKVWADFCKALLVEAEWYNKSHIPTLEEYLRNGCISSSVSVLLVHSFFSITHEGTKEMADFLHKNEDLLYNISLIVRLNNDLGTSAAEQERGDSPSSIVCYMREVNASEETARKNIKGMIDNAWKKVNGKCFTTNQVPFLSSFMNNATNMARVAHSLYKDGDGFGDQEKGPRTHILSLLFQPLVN
Assay: GC-MS of alpha-farnesene; FPP formed in situ from IPP by IDI and ISPA
Format: biochemical
Conditions: 100 mM Hepes pH 7.5, 2 mM IPP, room temperature

CC(C)=CCC/C(C)=C/CC/C(C)=C/COP(=O)(O)OP(=O)(O)O [farnesyl pyrophosphate]
GC-MS of alpha-farnesene; FPP formed in situ from IPP by IDI and ISPA: the yield of AFS was greater than that of MdF, with an α-farnesene yield
